{"source": "patent US20030153081A1", "about": "“Viral core protein-cationic lipid-nucleic acid-delivery complexes” (priority 1999, published 2003)", "key": {"HeLa cells": {"tested_on": "HeLa cells", "test": "β-galactosidase assay, alternative cationic peptides in HeLa cells", "type": "cell-based, human", "settings": "DC-Chol:DOPE liposome:peptide:DNA 12:0.6:1, 30 min, DNA 1.0 μg/ml", "description": "In order to examine the effects of various alternative cationic peptides on transfection activities, a series of liposome:cationic peptide:DNA complexes were prepared and their relative transfection abilities analysed in vitro. The peptides used were poly-lysine hydrochloride (average molecular weight 3970, Sigma), poly arginine hydrochloride (average molecular weight 11800, Sigma) a peptide derived from protein V, pV (p5, sequence shown below), a peptide analogue of Mu1 (V, sequence shown below) and Mu1 peptide itself. The p5 peptide and V peptide were synthesized using the same solid-phase peptide synthesis methodology as was used to prepare Mu1 peptide.\nEach peptide was combined with cationic liposome (DC-Chol:DOPE 3:2 m/m) and DNA (pCMVβ) in the liposome:peptide:DNA ratio of 12:0.6:1 (w/w/w) as described in Example 4. The transfection activities were examined using HeLa cells (human epithelial cells). The cells were seeded at an approximate density of 5×10^4 per well in a 24-well culture plate in DMEM supplemented with 10% FCS and grown for 24 h in the presence of 5% CO2 at 37° C. Cells were washed by brief exposure to DMEM and then treated with solutions containing LMD or LD complexes, prediluted with OPTIMEM (Gibco) (final DNA concentration 1.0 μg/ml in all cases), for 30 min. Cells were then washed again and incubated for a further 48 h in DMEM supplemented with 10% FCS prior to harvesting. The level of β-galactosidase enzyme activity was determined with a standard assay kit (chemiluminescent, Roche)."}, "COS-7 cells": {"tested_on": "COS-7 cells", "test": "β-galactosidase enzyme assay, transfection of COS-7 cells", "type": "cell-based, Green Monkey", "settings": "COS-7, same pDNA:Mu1:liposome ratio as optimal for ND7", "description": "COS cells were seeded at a density of 60-80% confluence in 24 well culture dishes 24 hrs prior to transfection. Immediately prior to transfection, cells were washed in serum-free media Incubating pCMVβ with Mu1 prior to the addition of the cationic liposome DC-Chol/DOPE formed complexes capable of cellular transfection. In each case 1 μg pCMVβ was complexed with 12 μg Mu1 peptide that had been found optimal for ND7 cells. The pCMVβ:Mu1 complexes were then mixed with 3, 4 and 6 μg DC-Chol/DOPE. COS cells were exposed to transfection complexes for 2 hours then maintained at 37° C., 5% CO2 for another 24 hrs before being harvested and processed for β-galactosidase enzyme assay. Numbers represent means±SD, n=3.\nCOS-7 cells (derived from Green Monkey kidney) were grown in RPMI 1640 media (BRL) supplemented with 10% fetal bovine serum (BRL) and 100 IU/mL penicillin/streptomycin (BRL).\nIn order to see whether improved transfections could be achieved in other cell types we performed a similar analysis on COS-7 cells. […] The same ratio of pDNA:Mu1:liposome optimal for ND7 cells was best for COS-7, cells. A similar degree of improvement was also seen (3.7 fold) over cationic liposomes alone."}, "ND7 cells": {"tested_on": "ND7 cells", "test": "β-galactosidase reporter gene assay, transfection of undifferentiated ND7 cells", "type": "cell-based, rat/mouse", "description": "ND7 cells were seeded at a density of 5 ×10^4 cells/well in 24 well culture dishes 24 hrs prior to transfection. Immediately prior to transfection, cells were washed in serum-free media. Complexes were formed by incubating pCMVβ with Mu1 prior to the addition of the cationic liposome DC-Chol/DOPE. In each case 1 μg pCMVβ was complexed with 0.6, 6, 12, and 21 μg Mu1 peptide. Each of these combinations was then complexed with 3, 4 and 6 μg DC-Chol/DOPE. ND7 cells were exposed to transfection complexes for 2 hours then maintained at 37° C., 5% CO2 for another 24 hrs before being harvested and processed for β-galactosidase enzyme assay. Numbers represent means±SD, n=3.\npCMVβ plasmid DNA was complexed to various amounts of polycationic peptide and then mixed with cationic liposome at a ratio of 1:3 (pCMVβ:liposome; w/w). After being washed briefly in serum free media, ND7 cells were exposed to the […] complexes for two hours and then returned to serum containing media Twenty-four hours later the cells were harvested and processed for β-galactosidase enzyme assay. Each condition was performed in triplicate and each experiment replicated three times. Numbers represent means±SD.\nND7s are a well-characterized cell line derived from the fusion of a neuroblastoma N18Tg2) with neonatal rat sensory neurons ^28. The cell line was maintained in normal growth media (NGM) (Leibovitz's L-15 media (BRL) enriched with 10% Fetal bovine serum (BRL), 4 g/L glucose, 4 g/L sodium bicarbonate (BRL), 100 IU/mL penicillin/streptomycin (BRL)) at 37° C. and 5% CO2. The cells were plated onto 24 well plates (Costar) at a density that produced 70% confluence after 24 hours.\nSince initial experiments determined that the presence of fetal bovine serum inhibited transfection of ND7 cells serum-free differentiation media was used for all transfections. Various amounts of DNA and liposome were placed in the bottom of a 7 mL sterile Bijou container (Bibby Sterilin Ltd., Staffordshire, U.K.), but not in contact with each other.\nDNA and liposomes were combined by the addition of 400 μL serum-free differentiation media and gentle shaking. The DNA: liposome mixture was incubated at room temperature for 20 to 30 minutes before being applied to the cells. The DNA/liposome mixture was then applied to the cells and incubated at 37° C., 5% CO2 for 2 hours after which this media was replaced with complete media Twenty four to 48 hours later the cells were fixed and processed for X-gal histochemistry as described ^31 or harvested for β-galactosidase enzyme assays (Promega Corp.).\nTransfection complexes including the test peptides were generated in the following manner. Various amounts of peptide was placed in the bottom of sterile polystyrene containers alongside, but not in contact with 1 μg·pCMVβ and mixed by adding 400 μl serum free NGM media The complexes were incubated at room temperature for 10 minutes after which DC-Chol/DOPE was added. The pDNA/peptide/liposome complex was further incubated at room temperature for 20 minutes and then administered to cells as above.\nWe examined the ability of Mu1 and Vp1 to enhance the transfection of a neuronal cell line by cationic liposomes using a β-Galactosidase reporter gene assay. ND7 cells were transfected with pCMVβ complexed to varying amounts of peptide and DC-Chol/DOPE. We have previously shown that the cationic liposome DC-Chol/DOPE is capable of efficiently transfecting the neuronally derived ND7 cell line ^31. […] Temporally, maximal levels of transgene expression are obtained between 48-60 hours post transfection. Therefore, in order to maximize the chance of detecting improvements in transfection we performed all our assays within 12-20 hours of transfection at a time when levels of reporter gene expression were lower. Previously we found a pDNA: liposome ratio of 1:3 (w/w) optimal for transfections in ND7 cells ^31. […]"}}, "data": [{"substance": "H-MRRAHHRRRRASHRRMRGG-OH [Mu1]", "values": [{"measurement": "transfection activity compared to poly lysine and poly arginine complexes", "setting": "HeLa cells", "value": "excellent transfection activity"}, {"measurement": "improvement over cationic liposomes alone", "setting": "COS-7 cells", "value": 3.7, "unit": "fold"}, {"measurement": "concentration in solution, optimal transfections", "setting": "ND7 cells; 12 μg Mu1/1 μg pCMVβ, 400 μL", "value": 30, "unit": "ng/mL"}, {"measurement": "relative ratios pCMVβ/Mu1/(DC-Chol/DOPE) giving greatest improvement in transfection efficiencies", "setting": "ND7 cells; 0.6-21 μg Mu1, 3-6 μg liposome per 1 μg pCMVβ tested", "value": "1/12/6"}, {"measurement": "increase in transfections compared to DNA alone", "setting": "ND7 cells; 1/12/6 pCMVβ/Mu1/(DC-Chol/DOPE) w/w/w", "value": 11, "unit": "fold"}, {"measurement": "concentration of protein in the cellular lysates vs untransfected cells", "setting": "ND7 cells; Mu1 complex (data not shown)", "value": "did not significantly vary"}, {"measurement": "improvement in transfection efficiencies over naked DNA", "setting": "ND7 cells; pCMVβ complexed to Mu1 alone, no liposome", "value": "No improvement in transfection efficiencies over naked DNA"}, {"measurement": "effect on transfection efficiencies", "setting": "ND7 cells; pDNA:Mu1 1:0.5 (w/w) with liposomes, initial experiments (not shown)", "value": "did not affect transfection efficiencies"}, {"measurement": "improvement of cationic liposome mediated transfection efficiencies", "setting": "ND7 cells; β-galactosidase activity, Mu1 with DC-Chol/DOPE vs liposome without Mu1", "value": "over 4 fold"}]}]}
